Reference: patent US10416175B2, “Opioid detection” (Randox Laboratories Limited, priority 2015, dated 2019)
Values after ≈ are worked out from the molar mass of the structure shown. Values joined by “and” are separate entries in the source; they are usually repeats but may differ in a detail not shown here. Equal values may be shown once. Where a name gives a salt, the structure may show the parent alone.

Columns and labels:
[1] = tested on: antibody raised against Immunogen-2; experiment: Competitive ELISA with polyclonal antibody raised against Immunogen-2, Tracer-1 as detecting agent; type: binding, sheep; conditions: for % CR: relative to O-desmethyltramadol = 100
Protocol: Pre-immunization blood samples are collected from sheep. In order to generate polyclonal antisera, 2 mgs of the immunogen (structure 1) is prepared in PBS, mixed at a ratio of 50% immunogen in PBS to 50% Freund's Complete adjuvant (Sigma, Product Number F5881) and emulsified by repeatedly passing the mixture through a tip on the end of a 1 ml syringe, until it reaches the required semi-solid consistency. 1.1 ml of the emulsified mixture is injected intramuscularly into each host animal (sheep) as the primary immunisation dose. Further injections (boosts) are prepared (1 mg of immunogen is prepared in PBS and mixed at a ratio of 50% Immunogen in PBS/50% Freunds Incomplete adjuvant, Sigma, Product Number—F5506). Boost injections are delivered intramuscularly at monthly intervals, 1 ml per animal. Serum is sampled monthly by collection of whole blood from the jugular vein for evaluation of the antibody titre. The degree of antibody purification required depends on the intended application. For many purposes, there is no requirement for purification of the serum, however, in other cases, such as, where the antibody is to be immobilised on a solid support, purification steps (such as caprylic acid/ammonium sulphate precipitation) can be taken to remove undesired material and eliminate non-specific binding. In another embodiment, the purification is by immunoglobulin precipitation, antigen-specific affinity purification, column chromatography, such as, size-exclusion chromatography or ion exchange chromatography.
The polyclonal antibody raised against Immunogen-2 of Example 9 was removed from fridge or freezer and brought to room temperature. The antibody was diluted to 2.5 μg/ml in 10 mM Tris pH 8.5 and all appropriate wells are coated at 125 μl/well at 37° C. for 2 hours or at 4° C. overnight. The plate was washed 4 times over a period of 10 minutes with working strength tris-buffered saline and tween 20 (TBST) wash buffer and tapped dry. 50 μl of working strength TBST was pipetted into the appropriate wells. Dilutions of target analyte and potential crossreactant(s) were prepared in working strength TBST and pipetted (50 μl) into the appropriate wells beginning with the lowest concentration to the highest concentration. Hapten-HRP (Tracer-1) conjugate at the appropriate concentration was prepared in conjugate dilution buffer and 75 μl into pipetted into appropriate wells. The plate was tapped gently to mix contents, sealed and incubated at 25° C. for 1 hour. The plate was washed 6 times over a 10-15 minute period (3 quick washes followed by 3 additional washes over 12 minutes) and tapped dry thoroughly onto tissue paper. Trimethylbenzidine (TMB) solution (125 μl) was added to each well and tapped gently, and the plate was incubated at room temperature for 20 minutes in the dark. The reaction was stopped by addition of 125 μl of 0.2 M sulphuric acid to each well and the absorbance measured at 450 nm using an ELISA plate reader (Biotek Elx800).

[2] = over 24-72 hours, following oral administration of tramadol; cited from earlier work
[3] = tested on: Randox Tramadol commercial immunoassay; conditions: cited from earlier work
[4] = tested on: Neogen Tramadol commercial immunoassay; conditions: cited from earlier work
[5] = tested on: Immunanalysis Tramadol commercial immunoassay; conditions: cited from earlier work
[6] = tested on: IDS Tramadol commercial immunoassay; conditions: cited from earlier work
[7] = tested on: Bio-Quant Tramadol commercial immunoassay; conditions: cited from earlier work
[8] = tested on: antibody specific to mitragynine; experiment: ELISA for mitragynine and 8-desmethylmitragynine (polyclonal antibody to mitragynine); type: binding; conditions: for % CR: based on 100% specificity to mitragynine; for IC50: standard concentration which produces 50% B/B0
Source text: In one embodiment, the antibodies and immunoassay methods and kits for mitragynine (kratom), are as described in U.S. patent application Ser. No. 14/184,422, filed Feb. 19, 2014 entitled “Immunoassay for Detecting Kratom, its Constituents and their Use” the entire contents of which are incorporated herein by reference. In particular, U.S. patent application Ser. No. 14/184,422 describes a polyclonal antibody which that binds specifically to an epitope of one or more of mitragynine, 8-desmethylmitragynine, 8-sulphonylmitragynine, and 8-glucuronidylmitragynine which was raised to an immunogen having the structure of:
[drawing 5] • wherein HRP is horseradish peroxidase.

[9] = tested on: antibody specific to mitragynine; conditions: polyclonal antibody of U.S. application 14/184,422, based on 100% to mitragynine; cited from earlier work
[10] = antibodies from three sheep immunised with Immunogen-2

Row | Compound | B/Bo ([1]; 0.156 ng/ml analyte) | B/Bo ([1]; 0.313 ng/ml analyte) | B/Bo ([1]; 0.625 ng/ml analyte) | B/Bo ([1]; 1.250 ng/ml analyte) | B/Bo ([1]; 2.500 ng/ml analyte) | B/Bo ([1]; 5.000 ng/ml analyte) | B/Bo ([1]; 10.000 ng/ml analyte) | % CR [1] | Urinary excretory amount [2] | % Cross-reactivity [3] | % Cross-reactivity [4] | % Cross-reactivity [5] | % Cross-reactivity [6] | % Cross-reactivity [7] | B/Bo ([8]; 0.313 ng/ml analyte) | B/Bo ([8]; 0.625 ng/ml analyte) | B/Bo ([8]; 1.250 ng/ml analyte) | B/Bo ([8]; 2.500 ng/ml analyte) | B/Bo ([8]; 5.000 ng/ml analyte) | B/Bo ([8]; 10.000 ng/ml analyte) | also measured
1 | CNC[C@@H]1CCCC[C@@]1(O)c1cccc(OC)c1 (racemic) [N-Desmethyltramadol, (±)-cis-2-[(methylamino)methyl]-1-(3-methoxyphenyl)cyclohexanol] | 97 | 98 | 99 | 100 | 99 | 97 | 98 | <<1.78% | 2-31% | 4% | 6% | 44% | <2% | <5% |  |  |  |  |  |  | cross-reactivity (in words) [1, 10]: no cross-reactivity; IC50 ([1]; antibody raised against Immunogen-2, Tracer-1): >>10 ng/ml; binding (in words) ([1]; at the concentrations tested (Table 2)): no appreciable binding
2 | CC[C@@H]1CN2CCc3c([nH]c4cccc(OC)c34)[C@@H]2C[C@@H]1/C(=C\OC)C(=O)OC [Mitragynine, mitragynine] |  |  |  |  |  |  |  |  |  |  |  |  |  |  | 75 | 63 | 49 | 37 | 25 | 17 | B/Bo ([8]; 20.000 ng/ml analyte): 11; % CR [8]: 100.00%; IC50 [8]: 1.193 ng/mL (≈ 2.99 nM); cross-reactivity [9]: 100%
3 | CC[C@@H]1CN2CCc3c([nH]c4cccc(O)c34)[C@@H]2C[C@@H]1/C(=C\OC)C(=O)OC [8-Desmethylmitragynine, 8-desmethylmitragynine] |  |  |  |  |  |  |  |  |  |  |  |  |  |  | 74 | 63 | 54 | 42 | 29 | 18 | B/Bo ([8]; 20.000 ng/ml analyte): 13; % CR [8]: 77.87%; IC50 [8]: 1.532 ng/mL (≈ 3.98 nM); cross-reactivity [9]: about 77.87%
4 | COc1cccc([C@]2(O)CCCC[C@H]2CN(C)C)c1 (racemic) [Tramadol, (±)-cis-2-[(dimethylamino)methyl]-1-(3-methoxyphenyl)cyclohexanol hydrochloride] |  |  |  |  |  |  |  |  | 12-32% |  |  |  |  |  |  |  |  |  |  |  | 
5 | (±)-cis-2-[(dimethylamino)methyl]-1-(3 hydroxyphenyl)-cyclohexanol [O-Desmethyltramadol] | 53 | 37 | 24 | 16 | 10 | 6 | 4 | 100% | 5-15% | 57% | 27% | 6% | 40% | 100% |  |  |  |  |  |  | IC50 of antibodies to O-desmethyltramadol [1, 10]: 0.178 ng/mL and 0.181 ng/mL and 0.214 ng/mL
